Marks after values point to notes of the source that are not given here.
Assays:
[1] = tested on: Normal human dermal fibroblasts (NHDF); test: Effect for protecting cells from oxidation stress in dermal fibroblasts (cellular ATP level after hydrogen peroxide); type: cell-based; conditions: for ATP level: 1 mM hydrogen peroxide for 15 minutes
Description: Normal human dermal fibroblasts (NHDF: product of Kurabo Industries, Ltd.) were incubated in the basal medium Medium 106S (product of Kurabo Industries, Ltd.) supplemented with 2% fetal bovine serum, 10 μg/ml of heparin, 1 μg/ml of hydrocortisone, 10 ng/ml of human recombinant epidermal growth factor, and 3 ng/ml of human recombinant basic fibroblast growth factor under conditions of 37° C. and 5% CO2. After confluence, the cells were seeded onto a 96-well microplate (2.0×10^3 cells/well). In seeding, Medium 106S (product of Kurabo Industries, Ltd.) supplemented with 2% fetal bovine serum, 10 μg/ml of heparin, and 1 μg/ml of hydrocortisone was used. After 24 hours culture, the medium was exchanged to the same medium supplemented with a sample specimen, and after 24 hours, it was exchanged to Medium 106S (product of Kurabo Industries, Ltd.) supplemented with 2% fetal bovine serum, 10 μg/ml of heparin, 1 μg/ml of hydrocortisone, 7.5 μg/ml of coenzyme A, and a sample specimen in order to further culture for 48 hours. After that, the medium was removed to be exchange to the medium supplemented with 1 mM hydrogen peroxide (product of Wako Pure Chemical Industries), and then the cells were incubated for 15 minutes followed by rinsing with PBS, and cellular ATP level was determined using ATP assay kit (product of PerkinElmer) for comparison. The parametrical multiple comparison (Turkey type) was carried out in statistical processing, and the symbol “†” refers that the percentage of risk is less than 5% in comparison with the control group containing solvent only.

[2] = tested on: Normal human dermal fibroblasts (NHDF); test: Cell activation-promoting effect in dermal fibroblasts (cellular ATP level); type: cell-based; conditions: for ATP level: 48 hours culture with sample
Description: Normal human dermal fibroblasts (NHDF: product of Kurabo Industries, Ltd.) were incubated in the basal medium Medium 106S (product of Kurabo Industries, Ltd.) supplemented with 2% fetal bovine serum, 10 μg/ml of heparin, 1 μg/ml of hydrocortisone, 10 ng/ml of human recombinant epidermal growth factor, and 3 ng/ml of human recombinant basic fibroblast growth factor under conditions of 37° C. and 5% CO2. After confluence, the cells were seeded onto a 96-well microplate (2.0×10^3 cells/well). In seeding, Medium 106S (product of Kurabo Industries, Ltd.) supplemented with 2% fetal bovine serum, 10 μg/ml of heparin, and 1 μg/ml of hydrocortisone was used. After 24 hours culture, the medium was exchanged to the same medium supplemented with a sample specimen in order to further culture for 48 hours. After that, the medium was removed and then the cells were rinsed with PBS, and cellular ATP level was determined using ATP assay kit (product of PerkinElmer) for comparison. The parametrical multiple comparison (Turkey type) was carried out in statistical processing, and the symbol “*” refers that the percentage of risk is less than 5%, and the symbol “**” refers that the percentage of risk is less than 1%, in comparison with the control group containing solvent only. In addition, the symbol “†” at the numerical value refers that the percentage of risk is less than 5% in comparison with oxidized coenzyme Q10.

brown guinea pigs = test: Inhibitory effect on pigmentation due to ultraviolet radiation; type: in vivo, guinea pig; conditions: average of scores (Table 1) of six brown guinea pigs, #=(L1−L0)−(L′1−L′0), sample vs medium, UVB-irradiated dorsal skin, polyethylene glycol ointment containing 10 parts by weight of reduced coenzyme Q10 applied once a day for one month
Description: The dorsal hair of six brown guinea pigs was carefully shaved with a clipper or shaver, and the shaved dorsal skin of each guinea pig was irradiated with ultraviolet beams (UVB: wavelength 250 to 350 nm) in the minimum erythema dose at two square portions of 2 cm′2 cm on the right and left of the dorsal median. The ultraviolet irradiation was performed once every other day for three days to induce erythema. Also, a medium and a sample were continuously applied to the respective irradiated portions (erythema portions) once a day for one month to examine the inhibitory action on pigmentation. As the sample, a polyethylene glycol ointment containing 10 parts by weight of reduced coenzyme Q10 was used. As the medium, only polyethylene glycol was used. Evaluation was performed by measurement with a color-difference meter, and an L value was calculated from the observed Munsell value.
Namely, DL (change with time) of the medium-applied portion was subtracted from DL (change with time) of the opposite sample-applied portion to obtain a value (#) according to the following equation: #=(L1−L0)−(L′1−L′0)
L0: Test portion before application of the sample
L′0: Test portion before application of the medium
L1: Sample-applied test portion one month after continuous application
L′1: Medium-applied test portion one month after continuous application […]

COC1=C(OC)C(=O)C(C/C=C(\C)CC/C=C(\C)CC/C=C(\C)CC/C=C(\C)CC/C=C(\C)CC/C=C(\C)CC/C=C(\C)CC/C=C(\C)CC/C=C(\C)CCC=C(C)C)=C(C)C1=O [Oxidized coenzyme Q10, oxidized coenzyme Q10, reference compound]
ATP level ([1]; 8.13 μg/ml): 82.29 ± 9.08 nM | ATP level ([1]; 100 μg/ml): 103.41 ± 1.17 nM | ATP level ([2]; 0.12 μg/ml): 183.23 ± 62.70 nM | ATP level ([2]; 0.98 μg/ml): 224.84 ± 43.55* nM | cellular ATP level compared with the solvent control ([2]; result in words): significantly increase the cellular ATP level

COc1c(O)c(C)c(C/C=C(\C)CC/C=C(\C)CC/C=C(\C)CC/C=C(\C)CC/C=C(\C)CC/C=C(\C)CC/C=C(\C)CC/C=C(\C)CC/C=C(\C)CCC=C(C)C)c(O)c1OC [Reduced coenzyme Q10, reduced coenzyme Q10]
ATP level ([1]; 8.13 μg/ml): 73.93 ± 4.96 nM | ATP level ([1]; 100 μg/ml): 112.47 ± 5.45 nM | cellular ATP level compared with the solvent control ([1]; 100 μg/ml, hydrogen peroxide oxidation stress, result in words): significantly increase the cellular ATP level | Average evaluation score (brown guinea pigs): 2.17 | Average evaluation score (brown guinea pigs; listed as reduced coenzyme Q10): 2 (0 ≦ # < 0.5) | ATP level ([2]; 0.12 μg/ml): 277.21 ± 46.02**† nM | ATP level ([2]; 0.98 μg/ml): 267.24 ± 20.72** nM | cellular ATP level compared with the solvent control ([2]; result in words): significantly increase the cellular ATP level | cellular ATP level, reduced compared with oxidized coenzyme Q10 ([2]; result in words): significantly increase the cellular ATP level
